Columns and labels:
[1] = target: RAC-beta serine/threonine-protein kinase (Homo sapiens, UniProt P31751); assay: Inhibition of Nano Luc-fused wild type AKT2 (unknown origin) expressed in HEK293 cells using luciferase substrate preincubated for 2 hrs followed by substrate added by NanoBRET Live cell target engagement assay; assay type: cell-based
[2] = target: RAC-alpha serine/threonine-protein kinase (Homo sapiens, UniProt P31749); assay: Inhibition of Nano Luc-fused wild type AKT1 (unknown origin) expressed in HEK293 cells using luciferase substrate preincubated for 2 hrs followed by substrate added by NanoBRET Live cell target engagement assay; assay type: cell-based
Chain of RAC-alpha serine/threonine-protein kinase (P31749 whole entry, the tested form may be a part): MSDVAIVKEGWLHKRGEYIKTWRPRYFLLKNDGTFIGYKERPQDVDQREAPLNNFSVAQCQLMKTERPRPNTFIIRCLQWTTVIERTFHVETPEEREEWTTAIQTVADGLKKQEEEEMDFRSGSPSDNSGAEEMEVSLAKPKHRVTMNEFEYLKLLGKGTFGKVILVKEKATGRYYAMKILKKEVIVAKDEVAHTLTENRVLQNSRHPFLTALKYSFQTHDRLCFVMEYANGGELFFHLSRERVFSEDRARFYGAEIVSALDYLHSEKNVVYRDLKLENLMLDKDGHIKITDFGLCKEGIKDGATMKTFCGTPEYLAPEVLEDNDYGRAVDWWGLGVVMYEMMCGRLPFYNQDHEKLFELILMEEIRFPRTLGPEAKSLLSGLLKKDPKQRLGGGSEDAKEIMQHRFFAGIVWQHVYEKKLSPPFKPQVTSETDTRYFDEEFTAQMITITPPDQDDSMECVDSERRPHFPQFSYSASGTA

Chain of RAC-beta serine/threonine-protein kinase (P31751 whole entry, the tested form may be a part): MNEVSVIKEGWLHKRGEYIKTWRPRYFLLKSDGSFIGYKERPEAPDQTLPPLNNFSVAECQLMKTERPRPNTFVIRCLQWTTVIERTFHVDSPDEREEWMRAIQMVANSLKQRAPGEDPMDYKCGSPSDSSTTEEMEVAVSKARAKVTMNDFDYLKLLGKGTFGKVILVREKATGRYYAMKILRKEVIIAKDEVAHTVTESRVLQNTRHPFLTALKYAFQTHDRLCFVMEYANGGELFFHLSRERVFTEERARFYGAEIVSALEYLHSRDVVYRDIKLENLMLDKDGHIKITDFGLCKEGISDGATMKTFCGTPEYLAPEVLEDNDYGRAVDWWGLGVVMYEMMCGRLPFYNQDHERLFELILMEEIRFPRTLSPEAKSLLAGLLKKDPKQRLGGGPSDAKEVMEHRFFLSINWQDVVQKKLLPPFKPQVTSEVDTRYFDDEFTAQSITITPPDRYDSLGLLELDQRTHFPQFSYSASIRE

Work on `Nc1ncccc1-c1nc2ccc(-c3ccccc3)nc2n1-c1ccc2c(c1)CC[C@@H]2NC(=O)c1cc(C=O)c2[nH]ncc2c1` yielded an IC50 [1] of at most 100 nM and an IC50 [2] of at most 100 nM.
In the case of `CN1CCN(c2cccc(-c3ccc4nc(-c5cccnc5N)n(-c5ccc6c(c5)CC[C@@H]6NC(=O)c5ccc(O)c(C=O)c5)c4n3)c2)CC1`, the IC50 [1] is reported as at most 10 nM and the IC50 [2] is reported as at most 10 nM.
With `Nc1ncccc1-c1nc2ccc(-c3ccccc3)nc2n1-c1ccc2c(c1)CC[C@@H]2NC(=O)c1cc(C=O)c(O)c(F)c1F` the IC50 [1] was at most 100 nM and the IC50 [2] was at most 100 nM.
`CC(=O)Nc1ccc(C(=O)N[C@H]2CCc3cc(-n4c(-c5cccnc5N)nc5ccc(-c6ccccc6)nc54)ccc32)cc1C=O` was tested, and the IC50 [1] was at most 100 nM and the IC50 [2] was at most 10 nM.
`COc1cnn(-c2ccc3nc(-c4cccnc4N)n(-c4ccc5c(c4)CC[C@@H]5NC(=O)c4ccc(O)c(C=O)c4)c3n2)c1` showed an IC50 [1] of at least 2000 nM and an IC50 [2] of at most 100 nM.
Compound `CS(=O)(=O)Nc1ccc(C(=O)N[C@H]2CCc3cc(-n4c(-c5cccnc5N)nc5ccc(-n6cccn6)nc54)ccc32)cc1C=O` has an IC50 [1] of at least 2000 nM and an IC50 [2] of at most 100 nM.
`Nc1ncccc1-c1nc2ccc(-c3ccccc3F)nc2n1-c1ccc2c(c1)CC[C@@H]2NC(=O)c1ccc(O)c(C=O)c1` showed an IC50 [1] of at most 100 nM and an IC50 [2] of at most 100 nM.
`Nc1ncccc1-c1nc2ccc(-n3cccn3)nc2n1-c1ccc2c(c1)CC[C@@H]2NC(=O)c1cc(C=O)c(O)c(F)c1F` gave an IC50 [1] of at most 100 nM and an IC50 [2] of at most 100 nM.

From ChEMBL document CHEMBL6121026, “Targeted Therapeutics in Oncology and Neurology: Advances in Kinase Inhibition and Biomarkers for Brain Injury” (ACS Med Chem Lett, 2025)
